Experiment: xn = mol fraction of the nth substance listed
Conditions: Liquid, Vibrating tube method, x1 = 0.33

C[N+](C)(C)CCO.[Cl-] [choline chloride] + OCCO
mass density [kg/m3]
Conditions | 298.15 K | 303.15 K | 308.15 K | 313.15 K | 318.15 K | 323.15 K
100 kPa | 1117.4 | 1114.5 | 1111.6 | 1108.7 | 1105.9 | 1103
5000 kPa | 1119 | 1116.1 | 1113.2 | 1110.3 | 1107.5 | 1104.7
10000 kPa | 1120.6 | 1117.7 | 1114.8 | 1111.9 | 1109.1 | 1106.3
15000 kPa | 1122.1 | 1119.3 | 1116.4 | 1113.5 | 1110.7 | 1107.9
20000 kPa | 1123.6 | 1120.8 | 1117.9 | 1115.1 | 1112.3 | 1109.5
25000 kPa | 1125.1 | 1122.3 | 1119.5 | 1116.6 | 1113.8 | 1111
30000 kPa | 1126.6 | 1123.8 | 1121 | 1118.2 | 1115.4 | 1112.6
35000 kPa | 1128.1 | 1125.3 | 1122.5 | 1119.7 | 1116.9 | 1114.1
40000 kPa | 1129.6 | 1126.8 | 1124 | 1121.2 | 1118.4 | 1115.7
45000 kPa | 1131 | 1128.2 | 1125.5 | 1122.7 | 1119.9 | 1117.2
50000 kPa | 1132.4 | 1129.6 | 1126.9 | 1124.1 | 1121.4 | 1118.7
